From patent US7544703B2, “Cyclic compound having 4-pyridylalkylthio group having substituted or unsubstituted amino group introduced therein” (Santen Pharmaceutical Co., Ltd., priority 2004, dated 2009)
Structures can show the parent of a compound that is named as a salt.

tested on: HUVEC (normal human umbilical vein endothelial cells); test: VEGF-induced HUVEC proliferation: cell proliferation inhibitory action test; assay type: cell-based; conditions: 72 h, 5 μL of 20 μg/mL test compound solution per well, WST-8 absorbance at 450 nm three days after VEGF addition, read-out: Cell proliferation inhibition rate (%);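 further: each well holds 100 µL cell suspension before compound addition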
Description: A cell proliferation inhibitory action test of the compounds of the present invention was performed using a VEGF-induced HUVEC proliferation evaluation system (HUVEC stands for normal human umbilical vein endothelial cells), which is one of the widely-used methods of evaluating in vitro angiogenesis inhibitory effects of drugs. As one of the widely-used methods of evaluating angiogenesis inhibitory effects of drugs, a cell proliferation inhibitory action test using a VEGF-induced HUVEC proliferation reaction evaluation system has been reported in Cancer Res., 59, 99-106 (1999). According to the method described in the above-mentioned document, a cell proliferation inhibitory action test of the compounds of the present invention was performed, the cell proliferation inhibition rate was calculated, and the angiogenesis inhibitory effect of each of the compounds of the present invention was evaluated using the obtained rate as an index. Each test compound was dissolved in dimethyl sulfoxide (hereinafter abbreviated as DMSO), and the obtained solution was diluted with a commercially available phosphoric acid buffer solution (hereinafter abbreviated as PBS), whereby a 20 μg/mL test compound solution was prepared. HUVEC was suspended in a 0.5% fetal bovine serum (hereinafter abbreviated as FBS)-containing F12K medium, whereby a 2×10^4 cells/mL HUVEC suspension was prepared. VEGF was dissolved in 0.1% bovine serum albumin-containing PBS, and the obtained solution was diluted with the 0.5% FBS-containing F12K medium, whereby a 400 ng/mL VEGF solution was prepared. • 1) The HUVEC suspension was inoculated in an amount of 100 μL into each well of a 96-well plate coated with type I collagen (2×10^3 cells per well). • 2) One day after the inoculation, the test compound solution was added in an amount of 5 μL per well. • 3) One hour after the addition of the test compound solution, the VEGF solution was added in an amount of 5 μL per well. • 4) Three days after the addition of the VEGF solution, WST-8 assay kit (Dojin Chemical Co., Ltd.) was added in an amount of 10 μL per well. • 5) After 3 hours, the above-mentioned plate was attached to an absorptiometer (Multilabel Counter ARVO), and an absorbance at 450 nm of each well suspension (hereinafter referred to as test compound suspension) was measured. • 6) A test was carried out in the same manner as in the above 1) to 5) except that 1.0% DMSO was used instead of the test compound solution. The result was used as a control. Incubation was carried out under conditions of 37° C., 5% carbon dioxide and […] in an incubator throughout the above-mentioned test steps. The cell proliferation inhibition rate (%), which was used as an index of an angiogenesis inhibitory effect, was calculated according to the following calculation equation. Cell proliferation inhibition rate (%)=100−{(Absorbance of test compound suspension−A)/(absorbance of control−A)}×100 (Calculation Equation) A: Absorbance of only cell suspension (cell+medium) (Test Results and Discussion)

SMILES | inhibition at 20 µg/mL (stock)
Cc1cc(C)cc(NC(=O)c2cccnc2SCc2ccnc(N3CCOCC3)c2)c1 [Compound 1-4, N-(3,5-Dimethylphenyl)-2-(2-morpholinopyridin-4-ylmethylthio)pyridine-3-carboxamide] | 100%
CC(C)c1cccc(NC(=O)c2cccnc2SCc2ccnc(N)c2)c1 [Compound 3-2, 2-(2-Aminopyridin-4-ylmethylthio)-N-(3-isopropylphenyl)pyridine-3-carboxamide monohydrochloride] | 97%
Cc1cc(C)cc(NC(=O)c2ccccc2SCc2ccnc(N)c2)c1 [Compound 3-20, 2-(2-Aminopyridin-4-ylmethylthio)-N-(3,5-dimethylphenyl)benzamide monohydrochloride] | 100%
CCC(=O)Nc1cc(CSc2ncccc2C(=O)Nc2cc(C)cc(C)c2)ccn1 [Compound 4-2, N-(3,5-Dimethylphenyl)-2-(2-propionylaminopyridin-4-ylmethylthio)pyridine-3-carboxamide] | 100%
CC(=O)N(C)c1cc(CSc2ncccc2C(=O)Nc2cc(C)cc(C)c2)ccn1 [Compound 4-12, 2-[2-(N-Acetyl-N-methylamino)pyridin-4-ylmethylthio]-N-(3,5-dimethylphenyl)pyridine-3-carboxamide] | 100%
CC(=O)Nc1cc(CSc2ncccc2C(=O)Nc2ccc3cn[nH]c3c2)ccn1 [Compound 4-22, 2-(2-Acetylaminopyridin-4-ylmethylthio)-N-(1H-indazol-6-yl)pyridine-3-carboxamide] | 97%
CC(=O)Nc1cc(CSc2ncccc2C(=O)Nc2cc(C)c(O)c(C)c2)ccn1 [Compound 4-37, 2-(2-Acetylaminopyridin-4-ylmethylthio)-N-(3,5-dimethyl-4-hydroxyphenyl)pyridine-3-carboxamide] | 100%
CC(=O)Nc1cc(CSc2ccccc2C(=O)Nc2ccc(Cl)cc2)ccn1 [Compound 4-42, 2-(2-Acetylaminopyridin-4-ylmethylthio)-N-(4-chlorophenyl)benzamide] | 100%
CC(=O)Nc1cc(CSc2ccccc2C(=O)Nc2ccc(C(C)(C)C)cc2)ccn1 [Compound 4-44, 2-(2-Acetylaminopyridin-4-ylmethylthio)-N-(4-tert-butylphenyl)benzamide] | 85%
CC(=O)Nc1cc(CSc2ccsc2C(=O)Nc2ccc(Cl)cc2)ccn1 [Compound 4-57, 3-(2-Acetylaminopyridin-4-ylmethylthio)-N-(4-chlorophenyl)thiophene-2-carboxamide] | 100%
CCCNC(=O)Nc1cc(CSc2ncccc2C(=O)Nc2cc(C)cc(C)c2)ccn1 [Compound 5-1, N-(3,5-Dimethylphenyl)-2-[2-(N′-n-propylureido)pyridin-4-ylmethylthio]pyridine-3-carboxamide] | 100%
Cc1cc(C)cc(NC(=O)c2cccnc2SCc2ccnc(NC(=O)NC(C)(C)C)c2)c1 [Compound 5-2, 2-[2-(N′-tert-Butylureido)pyridin-4-ylmethylthio]-N-(3,5-dimethylphenyl)pyridine-3-carboxamide] | 100%
Cc1cc(C)cc(NC(=O)c2cccnc2SCc2ccnc(NC(=O)Nc3ccc(Cl)cc3)c2)c1 [Compound 5-3, 2-[2-(N′-4-Chlorophenylureido)pyridin-4-ylmethylthio]-N-(3,5-dimethylphenyl)pyridine-3-carboxamide] | 100%
Cc1cc(C)cc(NC(=O)c2cccnc2SCc2ccnc(NC=O)c2)c1 [Compound 6-1, N-(3,5-Dimethylphenyl)-2-(2-formylaminopyridin-4-ylmethylthio)pyridine-3-carboxamide] | 100%
Cc1cc(C)cc(NC(=O)c2cccnc2SCc2ccnc(Nc3ccccc3)c2)c1 [Compound 8-1, N-(3,5-Dimethylphenyl)-2-(2-phenylaminopyridin-4-ylmethylthio)pyridine-3-carboxamide] | 100%
CNC(=O)Nc1cc(CSc2ncccc2C(=O)Nc2ccc(OC(F)(F)F)cc2)ccn1 [Compound 9-2, 2-[2-(N′-Methylureido)pyridin-4-ylmethylthio]-N-(4-trifluoromethoxyphenyl)pyridine-3-carboxamide] | 100%
CNC(=O)Nc1cc(CSc2ncccc2C(=O)Nc2ccc(Cl)cc2)ccn1 [Compound 9-3, N-(4-Chlorophenyl)-2-[2-(N′-methylureido)pyridin-4-ylmethylthio]pyridine-3-carboxamide] | 100%
CNC(=O)Nc1cc(CSc2ncccc2C(=O)Nc2ccc(OC(F)F)cc2)ccn1 [Compound 9-4, N-(4-Difluoromethoxyphenyl)-2-[2-(N′-methylureido)pyridin-4-ylmethylthio]pyridine-3-carboxamide] | 100%
CN(C)CCN(C)CC(=O)NC(Sc1ncccc1C(=O)Nc1ccc(OC(F)(F)F)cc1)c1ccncc1 (stereo not shown) [Compound 17-28, 2-[2-(N-(2-Dimethylaminoethyl)-N-methylamino)acetylaminopyridin-4-ylmethylthio]-N-(4-trifluoromethoxyphenyl)pyridine-3-carboxamide] | 100%
CN(C)CCN(C)CC(=O)NC(Sc1ncccc1C(=O)Nc1ccc(OC(F)F)cc1)c1ccncc1 (stereo not shown) [Compound 17-50, N-(4-Difluoromethoxyphenyl)-2-[2-(N-(2-dimethylaminoethyl)-N-methylamino)acetylaminopyridin-4-ylmethylthio]pyridine-3-carboxamide] | 100%
NCC(=O)Nc1cc(CSc2ncccc2C(=O)Nc2ccc(OC(F)F)cc2)ccn1 [Compound 18-1, 2-(2-Aminoacetylaminopyridin-4-ylmethylthio)-N-(4-difluoromethoxyphenyl)pyridine-3-carboxamide] | 88%

tested on: B16 cells; test: Tumor growth inhibitory action test using cancer models in mice (B16 cells); assay type: in vivo; conditions: C57BL/6N mouse, B16 cells intradermal; 100 mg/kg/day oral once a day, day 0 to day 10; average of 9 mice per group; read-out: Tumor tissue weight inhibition rate (%)
Description: A tumor growth inhibitory action test of the compounds of the present invention was performed using a tumor growth model in mice, which is one of the widely-used methods of evaluating in vivo anticancer effects of drugs.
As one of the widely-used methods of evaluating anticancer effects of drugs, a tumor growth inhibitory action test using cancer models in mice has been reported in Cancer Res., 59, 5209-5218 (1999). According to the method described in the above-mentioned document, a tumor growth inhibitory action test of the compounds of the present invention was performed, the tumor tissue weight inhibition rate was calculated, and the anticancer effect of each of the compounds of the present invention was evaluated using the obtained rate as an index.
A 1% aqueous methyl cellulose solution was added to each test compound to suspend it with a sonicator, whereby a 10 mg/mL test compound suspension was prepared.
Physiological saline was added to B16 cells, whereby a 3.3×10^7 cells/mL B16 cell suspension was prepared.
• 1) The back of each mouse (female, 6 weeks of age, C57BL/6N mouse) was depilated using a depilatory under Nembutal anesthesia. • 2) Several days after the depilation, the B16 cell suspension (300 μL) was injected intradermally into the back of the mouse under Nembutal anesthesia. • 3) From the B16 cell injection day (i.e. on day 0) to day 10, the test compound suspension (100 mg/kg/day) was orally administered once a day consecutively. • 4) Ten days after the injection of the cells, the mouse was euthanized with CO2 gas. • 5) A tumor tissue was enucleated from the mouse, and the weight of the tumor tissue was measured with an electronic balance. • 6) A test was performed in the same manner as in 1) to 5) except that the 1% aqueous methyl cellulose solution was used instead of the test compound suspension, and the result was used as a control. (Calculation of Tumor Tissue Weight Inhibition Rate)
A tumor tissue weight inhibition rate (the average of 9 mice per group), which was used as an index of anticancer effect, was calculated according to the following calculation equation. Tumor tissue weight inhibition rate (%)=100−(Mx/Mo)×100 (Calculation Equation) Mo: Tumor tissue weight of control group Mx: Tumor tissue weight of test compound solution administration group (Test Results and Discussion)

SMILES | inhibition in vivo at 100 mg/kg/day
Cc1cc(C)cc(NC(=O)c2cccnc2SCc2ccnc(N3CCOCC3)c2)c1 [Compound 1-4, N-(3,5-Dimethylphenyl)-2-(2-morpholinopyridin-4-ylmethylthio)pyridine-3-carboxamide] | 68%
CC(C)c1cccc(NC(=O)c2cccnc2SCc2ccnc(N)c2)c1 [Compound 3-2, 2-(2-Aminopyridin-4-ylmethylthio)-N-(3-isopropylphenyl)pyridine-3-carboxamide monohydrochloride] | 61%
Cc1cc(C)cc(NC(=O)c2ccccc2SCc2ccnc(N)c2)c1 [Compound 3-20, 2-(2-Aminopyridin-4-ylmethylthio)-N-(3,5-dimethylphenyl)benzamide monohydrochloride] | 42%
CCC(=O)Nc1cc(CSc2ncccc2C(=O)Nc2cc(C)cc(C)c2)ccn1 [Compound 4-2, N-(3,5-Dimethylphenyl)-2-(2-propionylaminopyridin-4-ylmethylthio)pyridine-3-carboxamide] | 51%
CC(=O)Nc1cc(CSc2ncccc2C(=O)Nc2ccc(OC(F)(F)F)c(Cl)c2)ccn1 [Compound 4-14, 2-(2-Acetylaminopyridin-4-ylmethylthio)-N-(3-chloro-4-trifluoromethoxyphenyl)pyridine-3-carboxamide] | 44%
CC(=O)Nc1cc(CSc2ncccc2C(=O)Nc2cccc(Cl)c2)ccn1 [Compound 4-16, 2-(2-Acetylaminopyridin-4-ylmethylthio)-N-(3-chlorophenyl)pyridine-3-carboxamide] | 74%
CC(=O)Nc1cc(CSc2ccccc2C(=O)Nc2cc(C)cc(C)c2)ccn1 [Compound 4-43, 2-(2-Acetylaminopyridin-4-ylmethylthio)-N-(3,5-dimethylphenyl)benzamide] | 47%
